What was measured:
[1] = tested on: dog platelets; test: Inhibition of platelet aggregation (dog platelets, agonist-induced, Chrono-Log Lumi-Aggregometer); type: cell-based; details: Canis lupus familiaris, stimulated by ADP, between about
Protocol: (§1) Blood was collected (citrated to prevent coagulation) from, naive, adult mongrel dogs. Platelet rich plasma, PRP, was prepared by centrifugation at 150×g for 10 min at room temperature. Washed platelets were prepared by centrifuging PRP at 800×g for 10 min. The cell pellet thus obtained was washed twice in Tyrode's buffer (pH 6.5) without Ca^++ and resuspended in Tyrode's buffer (pH 7.4) containing 1.8 mM Ca^++ at 3×10^5 cells/mL. Peptides were added 3 min. prior to the agonist in all assays of platelet aggregation. Final agonist concentrations were 0.1 unit/mL thrombin and […] (Sigma). Aggregation was monitored in a Chrono-Log Lumi-Aggregometer. Light transmittance 5 min after addition of the agonist was used to calculate percent aggregation according to the formula % aggregation =[(90-CR)[…]]×100, where CR is the chart reading, 90 is the baseline, and 10 is the PRP blank reading. IC50 's were determined by plotting [% inhibition of aggregation] vs. [concentration of peptide]. Peptides were assayed at 200 μM and diluted sequentially by a factor of 2 to establish a suitable dose response curve.

[2] = Stability of the peptide to plasma proteases in platelet-rich plasma (3 h incubation prior to agonist); type: in vitro ADME, dog; details: up to 3 h
Protocol: as §1
To assess the stability of the peptide to plasma proteases, the peptides were incubated for 3 h (rather than 3 min) in the PRP prior to addition of the agonist.

IC50 [1] | SMILES | stability in platelet-rich plasma [2]
500 to 1500 nM | CN(C(=O)c1ccccc1)[C@@H](CCCNC(=N)N)C(=O)NCC1=CC(CC(=O)O)C(=O)N(c2ccccc2)CC1 (stereo partly shown) [Example 1, 1-phenyl-2-oxo-3-carboxymethyl-5-[(N-benzoyl-N-methyl-arginylamino)methyl]-2,3,6,7-tetrahydro-1H-azepine] | stable in platelet-rich plasma for up to 3 h
500 to 1500 nM | CC(=O)N(C)[C@@H](CCCNC(=N)N)C(=O)NCC1=CC(CC(=O)O)C(=O)N(c2ccccc2)CC1 (stereo partly shown) [Example 2, 1-phenyl-2-oxo-3-carboxymethyl-5-[acetyl-(N-methylarginyl)-aminomethyl]-2,3,6,7-tetrahydro-1H-azepine] | stable in platelet-rich plasma for up to 3 h
